Experimental data published in ChEMBL document CHEMBL1201862, “PubChem BioAssay data set” (2004).
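How tested: cells in 96-well plates exposed to compound for 48 hours at five concentrations. Here, GI50 denotes the concentration required for 50% inhibition of growth.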 The source made the active and inactive calls. No stated cut-off is given here; in the data, active = GI50 up to about 1.1 µM and inactive = higher.

What was measured:
Test in all cases: NCI anticancer screen, dose series, 48 h
UACC-62 = test system: UACC-62
786-0 = test system: 786-0
ACHN = test system: ACHN
LOX IMVI = test system: LOX IMVI
Malme-3M = test system: Malme-3M
SK-MEL-5 = test system: SK-MEL-5
HCT-15 = test system: HCT-15
M14 = test system: M14
HCC 2998 = test system: HCC 2998
OVCAR-4 = test system: OVCAR-4
HL-60 = test system: HL-60
MOLT-4 = test system: MOLT-4
SK-OV-3 = test system: SK-OV-3
OVCAR-5 = test system: OVCAR-5
RXF 393 = test system: RXF 393
IGROV-1 = test system: IGROV-1
SF-539 = test system: SF-539

| SMILES | GI50 (UACC-62) | GI50 (786-0) | GI50 (ACHN) | GI50 (LOX IMVI) | GI50 (Malme-3M) | GI50 (SK-MEL-5) | GI50 (HCT-15) [µM] | GI50 (M14) | GI50 (HCC 2998) | GI50 (OVCAR-4) | GI50 (HL-60) | GI50 (MOLT-4) | GI50 (SK-OV-3) | GI50 (OVCAR-5) | GI50 (RXF 393) | GI50 (IGROV-1) | GI50 (SF-539) |
| --- | --- | --- | --- | --- | --- | --- | --- | --- | --- | --- | --- | --- | --- | --- | --- | --- | --- |
| OC1[C@H]([C@H]2CCCC[C@@H]2O)CCC[C@@H]1[C@@H]1CCCC[C@H]1O (stereo not given in full) | > 100 µM (inactive) | > 100 µM (inactive) | > 100 µM (inactive) | > 100 µM (inactive) | > 100 µM (inactive) | > 100 µM (inactive) | > 100 | > 100 µM (inactive) | > 100 µM (inactive) | > 100 µM (inactive) | > 100 µM (inactive) | > 100 µM (inactive) | > 100 µM (inactive) | > 100 µM (inactive) | > 100 µM (inactive) | > 100 µM (inactive) | > 100 µM (inactive) |
| COc1ccc(NC(=O)C2C(=O)N(c3ccc(OC)cc3)C(=O)/C2=N/O)cc1 (stereo not given) | 21.8 µM (inactive) | 20.1 µM (inactive) | 21.8 µM (inactive) | 57.8 µM (inactive) | 20.4 µM (inactive) |  | > 100 | 34 µM (inactive) | 21 µM (inactive) | 17.2 µM (inactive) | > 100 µM (inactive) | > 100 µM (inactive) | 20.2 µM (inactive) | > 100 µM (inactive) | 15.3 µM (inactive) | 40.1 µM (inactive) | 19.6 µM (inactive) |
| CC1(OCc2ccccc2)C(=O)N2C1N(C(=O)OCc1ccccc1)CC2(C)C (stereo not given) | 38.5 µM (inactive) | > 100 µM (inactive) | 61.1 µM (inactive) | 46.6 µM (inactive) | 80 µM (inactive) | 17.9 µM (inactive) | 68.1 | 66.8 µM (inactive) | > 100 µM (inactive) | > 100 µM (inactive) | 29.4 µM (inactive) | 28.2 µM (inactive) |  |  | 67.5 µM (inactive) | 57.3 µM (inactive) | > 100 µM (inactive) |
| O=C(CN1CCN(c2ccccc2)CC1)N1CCc2c([nH]c3ccccc23)C1c1cccnc1 (stereo not given) | 88.7 µM (inactive) | 15.3 µM (inactive) | 51.8 µM (inactive) | > 73.1 µM (inactive) | > 100 µM (inactive) | 51.3 µM (inactive) | 57.3 | 54.2 µM (inactive) | > 87.9 µM (inactive) | > 29.4 µM (inactive) | 30.9 µM (inactive) | > 100 µM (inactive) | 25.8 µM (inactive) | > 100 µM (inactive) | 9.68 µM (inactive) | > 100 µM (inactive) | 16.7 µM (inactive) |
| Cn1c(=O)ccc2cc(C(=O)c3ccccc3)ccc21 | 14.6 µM (inactive) | 83.2 µM (inactive) | 36.8 µM (inactive) | 57.3 µM (inactive) | > 100 µM (inactive) | 22.8 µM (inactive) | 53.3 | > 100 µM (inactive) | > 100 µM (inactive) | 46.9 µM (inactive) | 23.6 µM (inactive) | 69.7 µM (inactive) | > 100 µM (inactive) | > 100 µM (inactive) |  | 24.7 µM (inactive) | 42.3 µM (inactive) |
| Cn1nc2ccc3nccc(NCCNCCO)c3c2n1 | 33.3 µM (inactive) | 38.5 µM (inactive) | 34.3 µM (inactive) | 20.4 µM (inactive) | 36.8 µM (inactive) | 56.5 µM (inactive) | 44.3 | 32.5 µM (inactive) | 40.6 µM (inactive) | 40.9 µM (inactive) | > 100 µM (inactive) | 5.56 µM (inactive) | 34.1 µM (inactive) | 25 µM (inactive) | 23.7 µM (inactive) | 68.4 µM (inactive) | 33.6 µM (inactive) |
| CC(=O)/C(=N\O)C(=O)NCc1ccccc1 | > 100 µM (inactive) | > 100 µM (inactive) | > 100 µM (inactive) | 20.2 µM (inactive) | > 100 µM (inactive) | > 100 µM (inactive) | 35.9 |  | > 100 µM (inactive) |  | > 100 µM (inactive) | > 100 µM (inactive) | > 100 µM (inactive) | > 100 µM (inactive) | > 100 µM (inactive) | > 100 µM (inactive) | > 100 µM (inactive) |
| Nc1nc(O)c2c(ncn2CC(O)CO)n1 (stereo not given) | > 100 µM (inactive) | > 100 µM (inactive) | > 100 µM (inactive) | > 100 µM (inactive) | > 100 µM (inactive) | > 100 µM (inactive) | > 100 | > 100 µM (inactive) |  | > 100 µM (inactive) | > 100 µM (inactive) |  | > 100 µM (inactive) | > 100 µM (inactive) | > 100 µM (inactive) | > 100 µM (inactive) | > 100 µM (inactive) |
| c1ccc2c(c1)N=C(c1cccc3ccccc13)CC(c1ccc3c(c1)OCO3)S2 (stereo not given) | > 100 µM (inactive) | > 100 µM (inactive) | > 100 µM (inactive) | > 100 µM (inactive) | 70.6 µM (inactive) | > 100 µM (inactive) |  | 25.4 µM (inactive) | > 100 µM (inactive) | > 100 µM (inactive) | > 100 µM (inactive) | > 100 µM (inactive) | > 100 µM (inactive) | > 100 µM (inactive) | > 100 µM (inactive) | > 100 µM (inactive) | > 100 µM (inactive) |
| CCN(CC)C(=O)N1CCN(C=S)CC1 | > 100 µM (inactive) | > 100 µM (inactive) | > 100 µM (inactive) | > 100 µM (inactive) | > 100 µM (inactive) | > 100 µM (inactive) | > 100 | > 100 µM (inactive) | > 100 µM (inactive) | > 100 µM (inactive) | > 100 µM (inactive) | > 100 µM (inactive) | > 100 µM (inactive) | > 100 µM (inactive) | > 100 µM (inactive) | > 100 µM (inactive) | > 100 µM (inactive) |
| [O-][S+](c1ccc(O)cc1)c1ccc(O)cc1 | > 100 µM (inactive) | > 100 µM (inactive) |  | > 100 µM (inactive) | > 100 µM (inactive) | > 100 µM (inactive) | > 100 | > 100 µM (inactive) | > 100 µM (inactive) | > 100 µM (inactive) | > 100 µM (inactive) | > 100 µM (inactive) | > 100 µM (inactive) | > 100 µM (inactive) | > 100 µM (inactive) | > 100 µM (inactive) | > 100 µM (inactive) |
| CCOC(=O)C(C)(C)Oc1ccc2c(-c3ccc(Cl)cc3)c(-c3ccc(Cl)cc3)c(=O)oc2c1 | > 100 µM (inactive) | > 100 µM (inactive) | > 100 µM (inactive) | > 100 µM (inactive) | > 100 µM (inactive) | 98.2 µM (inactive) | > 100 | > 100 µM (inactive) | > 100 µM (inactive) | > 100 µM (inactive) | 68.7 µM (inactive) | > 100 µM (inactive) |  |  | 93.8 µM (inactive) | > 100 µM (inactive) | > 100 µM (inactive) |
| NNC(=O)C(=O)N/N=C1/CCCC1C(=O)CCC(=O)Nc1ccc(Cl)cc1 (stereo not given) | 2.49 µM (inactive) | > 100 µM (inactive) | 15.3 µM (inactive) |  | > 100 µM (inactive) | > 100 µM (inactive) | 12.2 | 52.2 µM (inactive) | > 100 µM (inactive) | > 100 µM (inactive) | > 100 µM (inactive) | > 100 µM (inactive) | > 100 µM (inactive) | > 100 µM (inactive) | > 100 µM (inactive) | > 100 µM (inactive) | > 100 µM (inactive) |
| O=[N+]([O-])c1ccc(-c2ccc(C3=Nn4c(CNc5ccccc5Cl)nnc4SC3)o2)cc1 | > 100 µM (inactive) | > 100 µM (inactive) | 32.6 µM (inactive) | 42.7 µM (inactive) | > 100 µM (inactive) |  | 12.9 | > 100 µM (inactive) | > 100 µM (inactive) |  | > 100 µM (inactive) | > 100 µM (inactive) | > 100 µM (inactive) | > 100 µM (inactive) |  | > 100 µM (inactive) | > 100 µM (inactive) |
| CN(C)CCNC(=O)c1cccc2c1nc(-c1ccc(F)cc1)c1ccccc12 | 3.09 µM (inactive) | 4.65 µM (inactive) | 2.64 µM (inactive) | 1.83 µM (inactive) |  | 2.34 µM (inactive) | 2.67 | 5.81 µM (inactive) | 3.34 µM (inactive) | 5.94 µM (inactive) | 1.22 µM (inactive) | 0.232 µM (active) | 8.47 µM (inactive) | 3.63 µM (inactive) | 3.2 µM (inactive) | 2.84 µM (inactive) | 3.63 µM (inactive) |
| CC(=O)N1CCC2(C=Nc3ccccc32)CC1 | > 100 µM (inactive) | > 100 µM (inactive) | > 100 µM (inactive) | > 100 µM (inactive) | > 100 µM (inactive) | > 100 µM (inactive) | > 100 | > 100 µM (inactive) | > 100 µM (inactive) | > 100 µM (inactive) | > 100 µM (inactive) | > 100 µM (inactive) | > 100 µM (inactive) | > 100 µM (inactive) |  | > 100 µM (inactive) | > 100 µM (inactive) |
| O=C(Cc1ccccc1)NN1C(=O)C(Cl)C1c1cccc(O)c1 (stereo not given) | > 10 µM (inactive) | 13.2 µM (inactive) | 16.4 µM (inactive) | 13.5 µM (inactive) | 31.6 µM (inactive) |  | 18.7 | 15.3 µM (inactive) | 20.2 µM (inactive) | 17.7 µM (inactive) | 11.8 µM (inactive) | 7.69 µM (inactive) | 28.2 µM (inactive) | 14.4 µM (inactive) | 18 µM (inactive) | 17.2 µM (inactive) |  |
| Cc1ccc(NC(=O)/C(Cl)=C(/Cl)C(=O)O)cc1 | 15.9 µM (inactive) | 17.3 µM (inactive) | 16.5 µM (inactive) | 17.1 µM (inactive) | 15.6 µM (inactive) | 28.4 µM (inactive) | 15.6 | 15.2 µM (inactive) | 19.7 µM (inactive) | 18.2 µM (inactive) | 1.64 µM (inactive) | 11.5 µM (inactive) | 18.8 µM (inactive) | 21 µM (inactive) | 31 µM (inactive) | 29.6 µM (inactive) |  |
